Results: PubChem BioAssay (NCI)
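Five compound concentrations were applied to cells in 96-well plates for 48 hours; endpoints were derived by simple linear interpolation of the resulting dose-response curve. At the TGI there is no net growth.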

What was measured:
Assay in all cases: NCI anticancer screen, dose series, 48 h
BT-549 breast = tested on: BT-549 breast
NCI-H23 lung = tested on: NCI-H23 lung
CCRF-CEM leukemia = tested on: CCRF-CEM leukemia
LOX IMVI melanoma = tested on: LOX IMVI melanoma
OVCAR-3 ovarian = tested on: OVCAR-3 ovarian
KM12 colon = tested on: KM12 colon
HT29 colon = tested on: HT29 colon
TK-10 renal = tested on: TK-10 renal
NCI/ADR-RES ovarian = tested on: NCI/ADR-RES ovarian
M14 melanoma = tested on: M14 melanoma
MDA-N = tested on: MDA-N
CAKI-1 renal = tested on: CAKI-1 renal
SK-MEL-28 melanoma = tested on: SK-MEL-28 melanoma
SF-539 CNS = tested on: SF-539 CNS
MDA-MB-435 = tested on: MDA-MB-435

| SMILES | TGI (BT-549 breast) [µM] | TGI (NCI-H23 lung) [µM] | TGI (CCRF-CEM leukemia) [µM] | TGI (LOX IMVI melanoma) [µM] | TGI (OVCAR-3 ovarian) [µM] | TGI (KM12 colon) [µM] | TGI (HT29 colon) [µM] | TGI (TK-10 renal) [µM] | TGI (NCI/ADR-RES ovarian) [µM] | TGI (M14 melanoma) [µM] | TGI (MDA-N) [µM] | TGI (CAKI-1 renal) [µM] | TGI (SK-MEL-28 melanoma) [µM] | TGI (SF-539 CNS) [µM] | TGI (MDA-MB-435) [µM] |
| --- | --- | --- | --- | --- | --- | --- | --- | --- | --- | --- | --- | --- | --- | --- | --- |
| Cc1cc(S(=O)(=O)Nc2n[nH]c(N)n2)c(SCC(=O)O)cc1Cl | > 10 | > 10 | > 10 | > 10 | > 10 | > 10 | > 10 | > 10 | > 10 | > 10 | > 10 | > 10 | > 10 | > 10 |  |
| OC1C#CCSCC#C/C=C\1 (stereo not given) | > 100 | > 100 | 98.4 | > 100 | > 100 |  | > 100 | > 100 | 7.72 | > 100 | > 100 |  | > 100 | > 100 | > 100 |
| N#Cc1c(N)n(-c2cccc(C(=O)O)c2)c(=O)c2cc([N+](=O)[O-])ccc12 | > 100 | > 100 |  | > 100 |  | > 100 | > 100 | > 100 | > 100 |  | > 100 | > 100 | > 100 |  | > 100 |
| CCOC(=O)NC(Nc1ccc(S(=O)(=O)Nc2nc(C)cc(C)n2)cc1)(C(=O)OCC)C(F)(F)F (stereo not given) | > 100 | > 100 | > 100 | > 100 | > 100 | > 100 | > 100 | > 100 |  | > 100 | > 100 | > 100 | > 100 | > 100 | > 100 |
| NNC(=O)c1n[nH]nc1C(=O)NN | 29.3 | > 100 | > 100 |  | > 100 | > 100 | 26.3 | > 100 | > 100 | > 100 | > 100 | 32.6 |  |  | > 100 |
| O=c1c(/C=C/c2c(O)ccc3ccccc23)nnc2sc(-c3cccc(Br)c3)nn12 | 56.7 | 40.3 | 18.6 | 26.9 | > 100 | 63.6 | 82.1 |  | 88.4 | 66.4 | > 100 | 56.8 | > 100 | > 100 | > 100 |
| CC(O)C1(CNc2cc(Cl)nc(N)n2)CCC1 (stereo not given) | > 100 | > 100 | > 100 | > 100 | > 100 | > 100 | > 100 | > 100 | > 100 |  | > 100 | > 100 | > 100 | > 100 | > 100 |
| COc1ccc(C(OCC2OC(n3cc(C)c(=O)[nH]c3=O)CC2n2cc(Cn3cc(Cl)c(=O)[nH]c3=O)nn2)(c2ccccc2)c2ccccc2)cc1 (stereo not given) | > 100 | > 100 |  | > 100 | > 100 | > 100 | > 100 | > 100 | > 100 | > 100 | > 100 | > 100 | > 100 | > 100 | > 100 |
| COC(=O)c1cc2ccc(N)nc2[nH]c1=O | > 100 | > 100 |  | > 100 | > 100 | > 100 |  | > 100 | > 100 | > 100 | > 100 | > 100 | > 100 | > 100 | > 100 |
| COC(=O)/C=C(\C)CC(O)/C=C(\C)CCC=C(C)C (stereo not given) | > 100 | 74.9 | 94.1 | > 100 | 87.7 | > 100 | 59.2 | > 100 | 67.9 | > 100 | > 100 | > 100 | > 100 | > 100 |  |
| Cn1cc(NC(=O)Nc2cc(C(=O)Nc3cc(C(=O)Nc4ccc(S(=O)(=O)O)c5cc(S(=O)(=O)O)ccc45)n(C)c3)n(C)c2)cc1C(=O)Nc1cc(C(=O)Nc2ccc(S(=O)(=O)O)c3cc(S(=O)(=O)O)ccc23)n(C)c1 | > 100 | > 100 | > 100 |  | > 100 | > 100 | > 100 | > 100 | > 100 | > 100 | > 100 |  | > 100 | > 100 | > 100 |
| COC(=O)C1=C(C(=O)NNc2ccccc2)N(c2cccnc2Cl)C(c2ccccc2)=CC1c1ccccc1 (stereo not given) | > 100 | > 100 | > 100 | > 100 | > 100 | > 100 | > 100 | > 100 |  | > 100 | 45.6 | > 100 | > 100 | > 100 | > 100 |
